{"source": "the supplement of paper PMC10307832", "experiment_in_all_cases": "relative viability (nuclei count vs DMSO), 5 days (fraction); higher = more cells survive", "key": {"[1]": {"compound": "Cc1ccc(C(=O)N(CCCN)[C@@H](c2nc3cc(Cl)ccc3c(=O)n2Cc2ccccc2)C(C)C)cc1 [Ispinesib] + CC(C)C[C@H](NC(=O)[C@H](Cc1ccccc1)NC(=O)c1cnccn1)B(O)O [Bortezomib] (partner 0.002 µM)", "summary_of_the_method": "(§1)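 Lung cancer cell lines were seeded in 1536-well plates and dosed by pin tool the next day, with either a single drug or a fixed anchor-drug dose combined with five library-drug doses (not always all listed) spaced in √10 steps. Five days later, one step fixed the cells and stained their nuclei (final 0.05% Triton X-100, 1% formaldehyde, 1 ug/ml Hoechst), and nuclei were counted on 4× images. Relative viability is the nuclei count in treated wells divided by the count in vehicle wells, and each value is the median of duplicate plates.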"}, "[2]": {"compound": "Cc1ccc(C(=O)N(CCCN)[C@@H](c2nc3cc(Cl)ccc3c(=O)n2Cc2ccccc2)C(C)C)cc1 [Ispinesib] + CS(=O)(=O)CCNCc1ccc(-c2ccc3ncnc(Nc4ccc(OCc5cccc(F)c5)c(Cl)c4)c3c2)o1 [Lapatinib] (partner 2 µM)", "summary_of_the_method": "as §1"}, "[3]": {"compound": "C[C@]1(O)C[C@@H](c2nc(-c3ccc4ccc(-c5ccccc5)nc4c3)c3c(N)nccn32)C1 [Linsitinib] + CS(=O)(=O)N1CCN(Cc2cc3nc(-c4cccc5[nH]ncc45)nc(N4CCOCC4)c3s2)CC1 [Pictilisib] (partner 1 µM)", "summary_of_the_method": "as §1"}, "[4]": {"compound": "C[C@]1(O)C[C@@H](c2nc(-c3ccc4ccc(-c5ccccc5)nc4c3)c3c(N)nccn32)C1 [Linsitinib] + O=C(CCCCCCC(=O)Nc1ccccc1)NO [Vorinostat] (partner 1 µM)", "summary_of_the_method": "as §1"}}}
{"cell line": "UMC-11", "values": [{"measurement": "relative viability", "setting": "[1]; first compound 0.001 µM", "value": 0.505}, {"measurement": "relative viability", "setting": "[1]; first compound 0.003162 µM", "value": 0.72}, {"measurement": "relative viability", "setting": "[1]; first compound 0.01 µM", "value": 0.657}, {"measurement": "relative viability", "setting": "[1]; first compound 0.03162 µM", "value": 0.207}, {"measurement": "relative viability", "setting": "[1]; first compound 0.1 µM", "value": 0.183}, {"measurement": "relative viability", "setting": "[2]; first compound 0.001 µM", "value": 1.08}, {"measurement": "relative viability", "setting": "[2]; first compound 0.003162 µM", "value": 0.751}, {"measurement": "relative viability", "setting": "[2]; first compound 0.01 µM", "value": 0.723}, {"measurement": "relative viability", "setting": "[2]; first compound 0.03162 µM", "value": 0.294}, {"measurement": "relative viability", "setting": "[2]; first compound 0.1 µM", "value": 0.216}, {"measurement": "relative viability", "setting": "[3]; first compound 0.01 µM", "value": 0.786}, {"measurement": "relative viability", "setting": "[3]; first compound 0.03162 µM", "value": 0.735}, {"measurement": "relative viability", "setting": "[3]; first compound 0.1 µM", "value": 0.834}, {"measurement": "relative viability", "setting": "[3]; first compound 1 µM", "value": 0.691}, {"measurement": "relative viability", "setting": "[4]; first compound 0.01 µM", "value": 0.369}, {"measurement": "relative viability", "setting": "[4]; first compound 0.03162 µM", "value": 0.389}, {"measurement": "relative viability", "setting": "[4]; first compound 0.1 µM", "value": 0.357}, {"measurement": "relative viability", "setting": "[4]; first compound 0.3162 µM", "value": 0.217}, {"measurement": "relative viability", "setting": "[4]; first compound 1 µM", "value": 0.386}]}
